Patent US10703733B2, “MCL-1 inhibitors” (Gilead Sciences, Inc., priority 2018, dated 2020)
Like-named read-outs stand apart in the source and are kept apart here.

What was measured:
SKBR3 cells = assay: SKBR3 Cell Viability Assay (CellTiter Glo); assay type: cell-based; conditions: CellTiter Glo luminescence, read-out: MCL-1 CV SKBR3 EC50
How it was run: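 SKBR3 cells (6,000/well) in McCoy 5A + 10% FBS exposed to serially diluted compound for 72 h at 37° C., 5% CO2. Viability by CellTiter Glo luminescence; % inhibition normalized to DMSO (negative) and 10 μM puromycin (positive).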

[1] = target: MCL-1/Bim interaction (recombinant human MCL-1 protein, residues 171-327; biotinylated human Bim peptide, residues 51-76) (Homo sapiens (Human), UniProt Q07820); assay: MCL-1/Bim Binding AlphaLISA Assay; conditions: 0.0625 nM 6xHis-Mcl-1 (171-327), 0.0625 nM biotinylated-Bim peptide
How it was run: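 AlphaLISA with 0.0625 nM His-tagged MCL-1 and 0.0625 nM biotin-Bim peptide in 20 mM Hepes pH 7.5, 150 mM NaCl, 0.002% Brij 35, 1 mM DTT, 0.01% BSA. Compound preincubated 1 h with MCL-1, Bim added for 2 h, then acceptor and donor beads 1 h each.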

MCL-1/Bim interaction (recombinant human MCL-1 protein, residues 171-327; biotinylated human Bim peptide, residues 51-76), sequence (Q07820 171-327): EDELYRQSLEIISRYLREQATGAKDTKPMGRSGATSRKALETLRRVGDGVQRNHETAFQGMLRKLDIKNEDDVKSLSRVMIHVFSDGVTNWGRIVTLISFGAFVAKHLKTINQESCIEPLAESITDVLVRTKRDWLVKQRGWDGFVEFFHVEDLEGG

Row | Structure (SMILES) | EC50 (SKBR3 cells; Homo sapiens, SK-BR-3, 72 h) | IC50 [1] | EC50 (SKBR3 cells; 72 hours)
1 | COC[C@@H]1CN(C(=O)N[S@@]2(=O)=NC(=O)c3ccc4c(c3)N(C[C@@H]3CC[C@H]3[C@@H](OC)/C=C/C[C@H](C)C2)C[C@@]2(CCCc3cc(Cl)ccc32)CO4)CCO1 [Example 232] | 243 nM | 0.052 nM | –
2 | CO[C@H]1/C=C/CCC[S@@](=O)(NC(=O)C2CCC2)=NC(=O)c2ccc3c(c2)N(C[C@@H]2CC[C@H]21)C[C@@]1(CCCc2cc(Cl)ccc21)CO3 [Example 31] | 2590 nM | 3.1 nM | –
3 | CO[C@H]1/C=C/C[C@H](C)C[S@@](=O)(NC(=O)Nc2ccnc(C)c2)=NC(=O)c2ccc3c(c2)N(C[C@@H]2CC[C@H]21)C[C@@]1(CCCc2cc(Cl)ccc21)CO3 [Example 443] | 162 nM | 0.187 nM | –
4 | COC1CCn2cc(C(=O)N[S@@]3(=O)=NC(=O)c4ccc5c(c4)N(C[C@@H]4CC[C@H]4[C@@H](OC)/C=C/C[C@H](C)C3)C[C@@]3(CCCc4cc(Cl)ccc43)CO5)cc2C1 (stereo partly drawn) [Example 175] | 33.9 nM | 0.14 nM | –
5 | CO[C@H]1/C=C/C[C@H](C)C[S@@](=O)(NC(=O)[C@]23COCC2C3)=NC(=O)c2ccc3c(c2)N(C[C@@H]2CC[C@H]21)C[C@@]1(CCCc2cc(Cl)ccc21)CO3 (stereo partly drawn) [Example 447] | 161 nM | 0.132 nM | –
6 | COC1CN(C(=O)N[S@@]2(=O)=NC(=O)c3ccc4c(c3)N(C[C@@H]3CC[C@H]3[C@@H](OC)/C=C/CCC2)C[C@@]2(CCCc3cc(Cl)ccc32)CO4)C1 [Example 390] | 86.4 nM | 0.061 nM | –
7 | CO[C@H]1/C=C/CCC[S@@](=O)(NC(=O)CCc2cncnc2)=NC(=O)c2ccc3c(c2)N(C[C@@H]2CC[C@H]21)C[C@@]1(CCCc2cc(Cl)ccc21)CO3 [Example 53] | 388 nM | 0.2 nM | –
8 | CO[C@H]1/C=C/CCC[S@@](=O)(NC(=O)CCc2cnoc2)=NC(=O)c2ccc3c(c2)N(C[C@@H]2CC[C@H]21)C[C@@]1(CCCc2cc(Cl)ccc21)CO3 [Example 57] | 596 nM | 0.2 nM | –
9 | COCC1(COC)Cn2cc(C(=O)N[S@@]3(=O)=NC(=O)c4ccc5c(c4)N(C[C@@H]4CC[C@H]4[C@@H](O)/C=C/C[C@H](C)[C@H]3C)C[C@@]3(CCCc4cc(Cl)ccc43)CO5)cc2CO1 [Example 331] | 68.9 nM | 0.075 nM | –
10 | COc1c(C(=O)N[S@@]2(=O)=NC(=O)c3ccc4c(c3)N(C[C@@H]3CC[C@H]3[C@@H](OC)/C=C/C[C@H](C)C2)C[C@@]2(CCCc3cc(Cl)ccc32)CO4)cn2c1COCC2 [Example 191] | 123 nM | 0.103 nM | –
11 | CO[C@H]1/C=C/C[C@H](C)C[S@@](=O)(NC(=O)N[C@H]2C[C@@H]2C(F)(F)F)=NC(=O)c2ccc3c(c2)N(C[C@@H]2CC[C@H]21)C[C@@]1(CCCc2cc(Cl)ccc21)CO3 [Example 243] | 41.7 nM | 0.059 nM | –
12 | COCc1cc(C(=O)N[S@@]2(=O)=NC(=O)c3ccc4c(c3)N(C[C@@H]3CC[C@H]3[C@@H](OC)/C=C/C[C@H](C)C2)C[C@@]2(CCCc3cc(Cl)ccc32)CO4)cn1C [Example 304] | 21.3 nM | 0.129 nM | –
13 | COc1nn(C)cc1C(=O)N[S@@]1(=O)=NC(=O)c2ccc3c(c2)N(C[C@@H]2CC[C@H]2[C@@H](OC(C)=O)/C=C/C[C@H](C)[C@H]1C)C[C@@]1(CCCc2cc(Cl)ccc21)CO3 [Example 249] | 222 nM | 0.14 nM | –
14 | CO[C@H]1/C=C/C[C@H](C)C[S@@](=O)(NC(=O)N[C@H]2C[C@@](O)(C(F)(F)F)C2)=NC(=O)c2ccc3c(c2)N(C[C@@H]2CC[C@H]21)C[C@@]1(CCCc2cc(Cl)ccc21)CO3 [Example 453] | 96.7 nM | 0.092 nM | –
15 | CO[C@H]1/C=C/C[C@H](C)C[S@@](=O)(NC(=O)C2CC3(CCOC3)C2)=NC(=O)c2ccc3c(c2)N(C[C@@H]2CC[C@H]21)C[C@@]1(CCCc2cc(Cl)ccc21)CO3 (stereo partly drawn) [Example 125] | 88.7 nM | 0.074 nM | –
16 | CO[C@H]1/C=C/C[C@H](C)C[S@@](=O)(NC(=O)N[C@H]2C[C@@H]2c2cnn(C)c2)=NC(=O)c2ccc3c(c2)N(C[C@@H]2CC[C@H]21)C[C@@]1(CCCc2cc(Cl)ccc21)CO3 (single isomer, unassigned) [Example 184] | – | 0.108 nM | 47.2 nM
17 | CO[C@H]1/C=C/C[C@H](C)[C@@H](C)[S@@](=O)(NC(=O)c2cnn(C)c2)=NC(=O)c2ccc3c(c2)N(C[C@@H]2CC[C@H]21)C[C@@]1(CCCc2cc(Cl)ccc21)CO3 [Example 138] | 60.5 nM | 0.112 nM | –

Row | Structure (SMILES) | EC50 (SKBR3 cells; Homo sapiens, SK-BR-3, 72 h) | IC50 [1] | EC50 (SKBR3 cells; 72 hours)
18 | CO[C@H]1/C=C/C[C@H](C)C[S@@](=O)(NC(=O)N2CC(OC(=O)N3CCCCC3)C2)=NC(=O)c2ccc3c(c2)N(C[C@@H]2CC[C@H]21)C[C@@]1(CCCc2cc(Cl)ccc21)CO3 [Example 385] | 222 nM | 0.128 nM | –
19 | COc1c(C(=O)N[S@@]2(=O)=NC(=O)c3ccc4c(c3)N(C[C@@H]3CC[C@H]3[C@@H](OC)/C=C/C[C@H](C)C2)C[C@@]2(CCCc3cc(Cl)ccc32)CO4)cn2c1C[C@H](OC)C2 [Example 451] | 161 nM | 0.52 nM | –
20 | CO[C@H]1/C=C/C[C@H](C)C[S@@](=O)(NC(=O)NC23COC(C)(C2)C3)=NC(=O)c2ccc3c(c2)N(C[C@@H]2CC[C@H]21)C[C@@]1(CCCc2cc(Cl)ccc21)CO3 [Example 340] | 37.1 nM | 0.031 nM | –
21 | CO[C@H]1/C=C/CCC[S@@](=O)(NC(=O)NC(C)C)=NC(=O)c2ccc3c(c2)N(C[C@@H]2CC[C@H]21)C[C@@]1(CCCc2cc(Cl)ccc21)CO3 [Example 19] | 1080 nM | 1.1 nM | –
22 | COc1nn(C(F)F)cc1C(=O)N[S@@]1(=O)=NC(=O)c2ccc3c(c2)N(C[C@@H]2CC[C@H]2[C@@H](OC)/C=C/C[C@H](C)C1)C[C@@]1(CCCc2cc(Cl)ccc21)CO3 [Example 252] | 82.7 nM | 0.043 nM | –
23 | CCN(C)C(=O)N[S@]1(=O)=NC(=O)c2ccc3c(c2)N(C[C@@H]2CC[C@H]2[C@@H](OC)/C=C/CCC1)C[C@@]1(CCCc2cc(Cl)ccc21)CO3 [Example 76] | 6330 nM | 10.5 nM | –
24 | CO[C@H]1/C=C/C[C@H](C)C[S@@](=O)(NC(=O)N[C@@H]2C[C@H]2C2CCOCC2)=NC(=O)c2ccc3c(c2)N(C[C@@H]2CC[C@H]21)C[C@@]1(CCCc2cc(Cl)ccc21)CO3 [Example 181] | 37.9 nM | 0.146 nM | –
25 | CO[C@H]1/C=C/CCC[S@@](=O)(NC(=O)CCc2csc(C)n2)=NC(=O)c2ccc3c(c2)N(C[C@@H]2CC[C@H]21)C[C@@]1(CCCc2cc(Cl)ccc21)CO3 [Example 99] | 2090 nM | 0.2 nM | –
26 | COC[C@@H]1C[C@@H]1NC(=O)N[S@@]1(=O)=NC(=O)c2ccc3c(c2)N(C[C@@H]2CC[C@H]2[C@@H](OC)/C=C/C[C@H](C)C1)C[C@@]1(CCCc2cc(Cl)ccc21)CO3 [Example 315] | 164 nM | 0.127 nM | –
27 | C[C@@H]1[C@@H](C)C/C=C/[C@H](O)[C@@H]2CC[C@H]2CN2C[C@@]3(CCCc4cc(Cl)ccc43)COc3ccc(cc32)C(=O)N=[S@]1(=O)NC(=O)c1cc2n(c1)C[C@H](CN1CCOCC1)OC2 [Example 327] | 28.6 nM | 0.051 nM | –
28 | CO[C@H]1/C=C/C[C@H](C)C[S@@](=O)(NC(=O)N[C@H]2C[C@@](C)(CO)C2)=NC(=O)c2ccc3c(c2)N(C[C@@H]2CC[C@H]21)C[C@@]1(CCCc2cc(Cl)ccc21)CO3 [Example 314] | 32.9 nM | 0.054 nM | –
29 | COc1cc(C(=O)N[S@@]2(=O)=NC(=O)c3ccc4c(c3)N(C[C@@H]3CC[C@H]3[C@@H](OC)/C=C/C[C@H](C)C2)C[C@@]2(CCCc3cc(Cl)ccc32)CO4)c(OC)nn1 [Example 278] | 80.5 nM | 0.089 nM | –
30 | CCC(=O)N[S@]1(=O)=NC(=O)c2ccc3c(c2)N(C[C@@H]2CC[C@H]2[C@@H](OC)CCCCC1)C[C@@]1(CCCc2cc(Cl)ccc21)CO3 [Example 17] | – | 11.3 nM | 10000 nM
31 | COc1nn(C)cc1C(=O)N[S@@]1(=O)=NC(=O)c2ccc3c(c2)N(C[C@@H]2CC[C@H]2[C@@H](OC)/C=C/[C@H](OCc2ccccn2)[C@H](C)C1)C[C@@]1(CCCc2cc(Cl)ccc21)CO3 [Example 402] | 90.2 nM | 0.098 nM | –
32 | CO[C@H]1/C=C/C[C@H](C)C[S@@](=O)(NC(=O)[C@@H](O)Cc2ccccc2)=NC(=O)c2ccc3c(c2)N(C[C@@H]2CC[C@H]21)C[C@@]1(CCCc2cc(Cl)ccc21)CO3 [Example 121] | 71.5 nM | 0.163 nM | –
33 | COC[C@H]1Cn2cc(C(=O)N[S@@]3(=O)=NC(=O)c4ccc5c(c4)N(C[C@@H]4CC[C@H]4[C@@H](O)/C=C/C[C@H](C)C3)C[C@@]3(CCCc4cc(Cl)ccc43)CO5)cc2CO1 [Example 325] | 50.3 nM | 0.1 nM | –
